Values quoted from earlier work, collected in patent publication US20240050388A1 (BioLink Life Sciences, Inc., priority 2022, published 2024).

Settings: oral

CC(=O)[O-].CC(=O)[O-].[Ca+2] [calcium acetate]
In vivo phosphate binding: essentially quantitative
